Results on seven compounds are retold here after publication PMC7763444, “Bioactive Steroids from the Red Sea Soft Coral Sinularia polydactyla” (Marine Drugs, 2020).

Molecules are shown by their SMILES.

Series [1] has as its system human umbilical vein endothelial cells (HUVEC). Kind of series: Migration scratch assay. Format: cell-based. The conditions noted are these: 20 µM, 20 h of treatment. The method, then:
Subsequently, we examined whether the isolated steroids could influence angiogenesis or inflammation in vitro. […] Only non-cytotoxic concentrations in HUVECs were used for the scratch assay.
The scratch test was performed with HUVEC cells and evaluated after 20 h of treatment, as previously reported.

Series [2] deals with neuron-like SH-SY5Y cells. Description: Cell death in 3-NPA model, propidium iodide (PI) assay. Type of series: cell-based, human. The note with it: maximal effect at 10 µM, with 20 mM 3-NPA, 48 h. The method, then:
In order to evaluate the potential neuroprotective effect of the compounds, neuroblastoma cell line SH-SY5Y was differentiated for 48 h and further exposed to 20 mM 3-nitropropionic acid (3-NPA) as an agent mimicking Huntington’s disease in vitro [25]. 3-NPA was used alone or in co-treatment with the tested compounds at concentrations of 0.1–10 µM. […] In general, PI as a positively charged dye is associated with an increase of cell damage or death, since it penetrates cells with cell-disrupted membranes. Within the 3-NPA model, its toxic effect was considered as 100% of the PI signal and thus reduction of cell death was determined.
N-acetylcysteine (NAC) was used as a positive control. * p compared with vehicle with 20 mM 3-NPA, # p compared with vehicle without 20 mM 3-NPA.
Cell death of SH-SY5Y cells (20,000 cells/well) was determined using the propidium iodide (PI) assay according to Stone et al. with a slight modification. […] The resulting fluorescence of 3-NPA toxin was considered as 100% cell death. In the assays, neuron-like cells were treated with the tested compounds in 0.1–10 µM concentration range for 48 h. DMSO-treated cells (≤0.1% v/v) were used as healthy controls.

The next series in a line: in vitro. The note with it: human.
In series [3] the test system is HeLa (human cervical cancer cell line). Description: Cytotoxicity, resazurin assay, 72 h. The note with it: read-out: Cytotoxicity (IC50) HeLa.
Protocol: (§1) Initially, the cytotoxic activity of metabolites 3–7, 9–12, 14–20, and 22–26 was evaluated in human cancer and normal cells after 72 h of treatment. Human cervical cancer (HeLa), human breast adenocarcinoma (MCF7) cell lines, and human normal fibroblasts (BJ) were used for the screening.
(§2) The tested compounds were dissolved in DMSO to afford 10 mM stock solutions. Human cervical carcinoma (HeLa) and human breast adenocarcinoma (MCF7) cell lines were purchased from European Collection of Authenticated Cell Cultures (ECACC, Salisbury, UK) and cultivated in Dulbecco’s Modified Eagle Medium (DMEM) (Merck, Darmstadt, Germany), as previously reported [27]. […] All cells were maintained in a humidified CO2 incubator at 37 °C using the standard trypsinization procedure twice or three times a week. […] All cells were maintained in a humidified CO2 incubator at 37 °C using the standard trypsinization procedure twice or three times a week.
(§3) In cytotoxicity assays, cancer cells were treated with six different concentrations of each tested compound for 72 h. Cells were stained with resazurin and IC50 values were calculated as previously reported [26]. Triplicates from at least three independent experiments were used.
In series [4] the test system is MCF7 (human breast adenocarcinoma cell line). Kind of series: Cytotoxicity, resazurin assay, 72 h. The conditions noted are these: MCF7, 72 h, read-out: Cytotoxicity (IC50) MCF7.
Protocol: as §1, §2, §3
Series [5] can be described thus: Cytotoxicity, resazurin assay, 72 h. The note with it: human, BJ cells (human normal fibroblasts).
Protocol: as §1, §3
The test system of series [6] is ELAM (E-selectin, CD62E) on HUVEC. Description: Cell-surface ELISA CD62E (E-selectin, ELAM) after TNFα stimulation. Format: cell-based, human. The conditions noted are these: 10 µM; 30 min pre-treatment, then TNFα for 4 h. Here is the method: TNFα stimulates NFκB (nuclear factor kappa-light-chain-enhancer of activated B cells) and thus E-selectin (CD62E, ELAM). Endothelial cells were pre-treated for 30 min with the tested compounds and then activated with TNFα for 4 h. Curcumin, which inhibits activation of NF-κB and thus inhibits expression and activity of the COX-2 gene induced by TNFα [21], was used as a positive control, decreasing ELAM production to 25% at 10 µM.
An enzyme-linked immunosorbent assay (ELISA) was used to detect the levels of the cell adhesion molecule ELAM in HUVEC cells after 30 min of incubation with the tested compounds and 4 h of stimulation with TNFα, as previously described.
the cell surface of endothelial cells that were pretreated with 10 µM compounds for 30 min and
subsequently stimulated with 10 ng/ml TNFα for 4 h. Data are means ± SDs ( n = 3).
(1 picture or pasted object on this page, not shown here)

Series [7] deals with neuron-like SH-SY5Y cells. Description: Neuroprotection in 3-NPA-induced model of Huntington's disease, Calcein AM viability. Format: cell-based, human. The conditions noted are these: 20 mM 3-NPA alone, 48 h.
Series [8] in a line: Stability of the isolated metabolite during structure elucidation. Type of series: physicochemical. The note with it: degraded prior to the acquisition of heteronuclear NMR spectra. An excerpt:
Compound 2 shared quite similar spectroscopic features with 1. In particular, all signals attributed to the steroidal nucleus, with the most prominent being the signals of the two angular methyls H3-18 and H3-19 (δH 1.09 and 0.94, respectively), the methyl at C-4 (δH 1.04), the oxymethine H-3 (δH 3.10), and the two olefinic protons H-9 and H-11 (δH 5.27 and 5.41, respectively), were also evident in the ^1H NMR spectrum of compound 2 (Table 1). The most significant difference observed was the replacement of the 1,2-disubstituted double bond in the side chain of 1 by a 1,1-disustituted double bond (δH 4.63 and 4.70) in the side chain of 2. The correlations observed in the COSY spectrum of 2 identified the relevant spin systems; however, metabolite 2 was proven unstable and degraded prior to the acquisition of heteronuclear NMR spectra. Nevertheless, the high structural similarity of 2 with compound 1 renders safe the proposed identification of 2 as (9E)-3β-hydroxy-4α,24-dimethyl-8,9-seco-5α-cholesta-9(11),24(28)-dien-8-one.

Series [9] deals with BJ (human normal fibroblasts).
Protocol: as §1, §3
Another series concerns androgen receptor (AR). Description: AR-transcriptional reporter assay (luciferase) in 22Rv1-ARE14 cells. The note with it: 24 h.

Protocol for androgen receptor (AR): Therefore, we further analyzed the influence of the isolated steroids on AR-mediated transcription. […] Control cells were grown in charcoal-stripped serum medium (CSS). Cells were stimulated with either 1 nM methyltrienolone R1881 (R) or with the tested compounds in six different concentrations for 24 h in CSS. The luciferase activity was measured in the cell lysate. […] The experiment was repeated three times in triplicates.
AR-transcriptional reporter assays were performed on 22Rv1-ARE14 cells after 24 h of incubation, as previously described [22].
Protocol for in vitro: as §1, §3

`CC(=O)O[C@H]1C=C2C[C@@H](O)CC[C@]2(CO)[C@H]2CC[C@]3(C)[C@@H]([C@H](C)CCCC(C)C)CC[C@H]3[C@H]12` [Compound 23, 7β-acetoxy-cholest-5-en-3β,19-diol]: the “Inhibition of HUVEC migration” value in series [1] is listed as “partially inhibited”. Also, the “Effect on cell death (PI assay), in words” value in series [2] was “significantly reduced cell death”. For the same compound, the IC50 at 72 h in “in vitro” worked out at 14.5 ± 3.9 µM. Moreover, the IC50 was 12 ± 1.7 µM in series [3] and 11.2 ± 0.5 µM in series [4].

As to `C=C(CCC(C)C1CCC2C3CC=C4CC(O)CCC4(C)C3CCC12C)C(C)C` (stereo not drawn) [Compound 17, 24-methyl-cholesta-5,24(28)-dien-3β-οl], the IC50 in series [3] and in series [4] was above 50 µM in each case. Also, the IC50 at 72 h in series [5] is above 50 µM.

`COc1cc(/C=C/C(=O)CC(=O)/C=C/c2ccc(O)c(OC)c2)ccc1O` [Curcumin]: the “ELAM production (decreased to)” value in series [6] worked out at 25%.

Turning to `O=C(O)CC[N+](=O)[O-]` [Compound 3-NPA, 3-nitropropionic acid], in series [7], the “Decrease in cell viability” value is “approx. 70%”.

Consider `C=C(CC[C@@H](C)[C@H]1CC[C@H]2C(=O)CC[C@H]3[C@H](C)[C@@H](O)CC[C@]3(C)/C=C/C[C@]12C)C(C)C` [Compound 2, (9E)-3β-hydroxy-4α,24-dimethyl-8,9-seco-5α-cholesta-9(11),24(28)-dien-8-one], for which the Stability result in series [8] is recorded as “unstable”.

In the case of `C=C(C(=O)CC(C)C1CCC2C1(C)CC(O)C1C3(C)CCC(O)C(C)C3CCC21O)C(C)C` (stereo not drawn) [Compound 11, 23-oxo-4α,24-dimethyl-5α-cholest-24(28)-en-3β,8β,11β-triol], in [1], the “Inhibition of HUVEC migration” value is listed as “partially inhibited”. In addition, the “Effect on cell death (PI assay), in words” value in series [2] is recorded as “significantly reduced cell death”. In addition, the “Cytotoxicity toward normal cells (BJ), in words” value in series [9] is recorded as “absence of cytotoxicity”. This compound showed an IC50 at 72 h in the series “in vitro” above 50 µM. The results for the IC50 in series [3] and in series [4] were 18.8 ± 6.4 µM and 21.7 ± 1.4 µM, respectively. The “Rank of AR inhibition” value in the series on androgen receptor (AR) (10 µM) is “strongest inhibition of AR”. For the same compound, in the series on androgen receptor (AR) (six concentrations, already at submicromolar concentrations), the “Luciferase activity (AR-mediated transcription), in words” value is “clearly reduced luciferase activity in a dose-dependent manner”.

In the case of `C=C(CCC(C)C1CCC2C3C(OC(C)=O)C=C4CC(O)CCC4(CO)C3CCC12C)C(C)C` (stereo not drawn) [Compound 22, 7β-acetoxy-24-methyl-cholesta-5,24(28)-dien-3β,19-diol], the “Inhibition of HUVEC migration” value in [1] was “partially inhibited”. The IC50 in [3] is 7.5 ± 0.1 µM; in series [4], 8.9 µM. For the same compound, 14.8 ± 5.8 µM corresponded to half-maximal inhibition in [5] (IC50 at 72 h).
